Assay results taken from patent US20230278972A1, “SUBSTITUTED HALOALKYL SULFONANILIDE HERBICIDES” (FMC Corporation, priority 2020, published 2023).

Columns and labels:
Format in all cases: in vivo
[1] = tested on: barnyardgrass (Echinochloa crus-galli); test: Test A preemergence, barnyardgrass; details: Preemergence; for Plant response rating, Barnyardgrass: 0 to 100 scale (0 no effect, 100 complete control); for Barnyardgrass plant response rating: 125 g ai/ha, visual injury on 0 to 100 scale (0 no effect, 100 complete control), approximately 10 days
Summary of the method: (§1)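 Pots: loam soil/sand blend. Pre: directed soil spray at planting. Post: plants 2–10 cm, 1–2 leaf stage. Formulation: non-phytotoxic solvent + surfactant.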

[2] = tested on: Foxtail, Giant (giant foxtail, Setaria faberi); test: Test A preemergence, Foxtail, Giant; details: Preemergence; for Plant response rating, Foxtail, Giant: 0 to 100 scale (0 no effect, 100 complete control); for Foxtail, Giant plant response rating: 125 g ai/ha, visual injury on 0 to 100 scale (0 no effect, 100 complete control), approximately 10 days
Summary of the method: as §1

[3] = tested on: blackgrass (Alopecurus myosuroides); test: Test A postemergence, blackgrass; details: Postemergence, 0 to 100 scale (0 no effect, 100 complete control)
Summary of the method: as §1

[4] = tested on: pigweed (Amaranthus retroflexus); test: Test A postemergence, pigweed; details: Postemergence
Summary of the method: as §1

[5] = tested on: Ryegrass, Italian (Italian ryegrass, Lolium multiflorum); test: Test A preemergence, Ryegrass, Italian; details: Preemergence; for Plant response rating, Ryegrass, Italian: 0 to 100 scale (0 no effect, 100 complete control); for Ryegrass, Italian plant response rating: 125 g ai/ha, visual injury on 0 to 100 scale (0 no effect, 100 complete control), approximately 10 days
Summary of the method: as §1

[6] = tested on: barnyardgrass (Echinochloa crus-galli); test: Test A postemergence, barnyardgrass; details: Postemergence, 0 to 100 scale (0 no effect, 100 complete control)
Summary of the method: (§2)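 Test chemicals, formulated in a non-phytotoxic solvent mixture with surfactant, were sprayed postemergence on plants 2 to 10 cm tall at the one- to two-leaf stage. Preemergence treatment was a directed soil spray onto freshly seeded pots. Both used a loam soil and sand blend.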

[7] = tested on: kochia (Bassia scoparia); test: Test A postemergence, kochia; details: Postemergence
Summary of the method: as §1

[8] = tested on: Foxtail, Giant (giant foxtail, Setaria faberi); test: Test A postemergence, Foxtail, Giant; details: Postemergence
Summary of the method: as §1

[9] = tested on: ragweed (common ragweed, Ambrosia artemisiifolia); test: Test A preemergence, ragweed; details: Preemergence; for Plant response rating, Ragweed: 0 to 100 scale (0 no effect, 100 complete control); for Ragweed plant response rating: 125 g ai/ha, visual injury on 0 to 100 scale (0 no effect, 100 complete control), approximately 10 days
Summary of the method: as §1

[10] = tested on: corn (Zea mays); test: Test A postemergence, corn; details: Postemergence
Summary of the method: as §1

[11] = tested on: pigweed (Amaranthus retroflexus); test: Test A preemergence, pigweed; details: for Plant response rating, Pigweed: 0 to 100 scale (0 no effect, 100 complete control); for Pigweed plant response rating: 125 g ai/ha, visual injury on 0 to 100 scale (0 no effect, 100 complete control), approximately 10 days
Summary of the method: as §2

[12] = tested on: Ryegrass, Italian (Italian ryegrass, Lolium multiflorum); test: Test A postemergence, Ryegrass, Italian; details: Postemergence
Summary of the method: as §1

[13] = tested on: galium (catchweed bedstraw, Galium aparine); test: Test A postemergence, galium; details: Postemergence
Summary of the method: as §2

[14] = tested on: ragweed (common ragweed, Ambrosia artemisiifolia); test: Test A postemergence, ragweed; details: Postemergence
Summary of the method: as §1

[15] = tested on: kochia (Bassia scoparia); test: Test A preemergence, kochia; details: Preemergence; for Plant response rating, Kochia: 0 to 100 scale (0 no effect, 100 complete control); for Kochia plant response rating: 125 g ai/ha, visual injury on 0 to 100 scale (0 no effect, 100 complete control), approximately 10 days
Summary of the method: as §1

[16] = tested on: wheat (Triticum aestivum); test: Test A postemergence, wheat; details: Postemergence
Summary of the method: as §2

[17] = 31 g ai/ha, visual injury, approx. 10 days
[18] = 125 g ai/ha, visual injury approx. 10 days
[19] = 31 g ai/ha, visual injury on 0 to 100 scale (0 no effect, 100 complete control), approx. 10 days
[20] = 125 g ai/ha, visual injury approx. 10 days, 0 to 100 scale (0 no effect, 100 complete control)
[21] = 1000 g ai/ha, visual injury, approx. 10 days
[22] = 1000 g ai/ha, visual injury, 0 to 100 scale (0 no effect, 100 complete control), approx. 10 days
[23] = 125 g ai/ha, 0 to 100 scale (0 no effect, 100 complete control)
[24] = 500 g ai/ha, visual injury vs untreated controls after approx. 10 days
[25] = 500 g ai/ha, visual injury vs untreated controls after approx. 10 days, 0 to 100 scale (0 no effect, 100 complete control)

Cc1cc(C)c(N(S(=O)(=O)C(F)(F)F)S(=O)(=O)C(F)(F)F)cc1C(=O)N1CCCC(F)C1 (stereo not drawn) [Compound 118]
Plant response rating, Barnyardgrass [1, 17]: 0 | Barnyardgrass plant response rating [1]: 90 | Plant response rating, Foxtail, Giant [2, 17]: 80 | Foxtail, Giant plant response rating [2]: 100 | Plant response rating, Blackgrass ([3]; 31 g ai/ha): 20 | Plant response rating, Blackgrass [3, 18]: 10 | Plant response rating, Pigweed [4, 19]: 30 | Plant response rating, Pigweed [4, 20]: 90 | Plant response rating, Ryegrass, Italian [5, 17]: 40 | Ryegrass, Italian plant response rating [5]: 80 | Plant response rating, Barnyardgrass ([6]; 31 g ai/ha): 10 | Plant response rating, Barnyardgrass [6, 18]: 90 | Plant response rating, Kochia [7, 19]: 10 | Plant response rating, Kochia [7, 20]: 40 | Plant response rating, Foxtail, Giant [8, 19]: 0 | Plant response rating, Foxtail, Giant [8, 20]: 30 | Plant response rating, Ragweed [9, 17]: 50 | Ragweed plant response rating [9]: 100 | Plant response rating, Corn [10, 19]: 0 | Plant response rating, Corn [10, 20]: 0 | Plant response rating, Pigweed [11, 17]: 100 | Pigweed plant response rating [11]: 100 | Plant response rating, Ryegrass, Italian [12, 19]: 0 | Plant response rating, Galium [13, 19]: 40 | Plant response rating, Galium [13, 20]: 90 | Plant response rating, Ragweed [14, 19]: 20 | Plant response rating, Ragweed [14, 20]: 80 | Plant response rating, Kochia [15, 17]: 0 | Kochia plant response rating [15]: 0 | Plant response rating, Wheat [16, 19]: 0 | Plant response rating, Wheat [16, 20]: 40

Cc1cc(C)c(C(=O)N2CCN(C)CC2)cc1NS(=O)(=O)C(F)(F)F [Compound 10]
Plant response rating, Barnyardgrass ([1]; 1000 g ai/ha): 40 | Plant response rating, Foxtail, Giant ([2]; 1000 g ai/ha): 80 | Plant response rating, Blackgrass [3, 21]: 0 | Plant response rating, Pigweed [4, 22]: 80 | Plant response rating, Ryegrass, Italian ([5]; 1000 g ai/ha): 90 | Plant response rating, Barnyardgrass [6, 21]: 10 | Plant response rating, Kochia [7, 22]: 40 | Plant response rating, Foxtail, Giant [8, 22]: 20 | Plant response rating, Ragweed ([9]; 1000 g ai/ha): 90 | Plant response rating, Corn [10, 22]: 10 | Plant response rating, Pigweed ([11]; 1000 g ai/ha): 100 | Plant response rating, Ryegrass, Italian [12, 22]: 60 | Plant response rating, Galium [13, 22]: 80 | Plant response rating, Ragweed [14, 22]: 80 | Plant response rating, Kochia ([15]; 1000 g ai/ha): 60 | Plant response rating, Wheat [16, 22]: 0

Cc1cc(C)c(N(COC(=O)C2CCCC2)S(=O)(=O)C(F)(F)F)cc1C1=NOC2(CCCC2)C1 [Compound 150]
Plant response rating, Barnyardgrass [1, 17]: 0 | Barnyardgrass plant response rating [1]: 90 | Plant response rating, Foxtail, Giant [2, 17]: 20 | Foxtail, Giant plant response rating [2]: 100 | Plant response rating, Blackgrass ([3]; 31 g ai/ha): 0 | Plant response rating, Blackgrass ([3]; 125 g ai/ha): 0 | Plant response rating, Pigweed [4, 19]: 20 | Plant response rating, Pigweed [4, 23]: 40 | Plant response rating, Ryegrass, Italian [5, 17]: 40 | Ryegrass, Italian plant response rating [5]: 90 | Plant response rating, Barnyardgrass ([6]; 31 g ai/ha): 0 | Plant response rating, Barnyardgrass ([6]; 125 g ai/ha): 50 | Plant response rating, Kochia [7, 19]: 10 | Plant response rating, Kochia [7, 23]: 10 | Plant response rating, Foxtail, Giant [8, 19]: 0 | Plant response rating, Foxtail, Giant [8, 23]: 20 | Plant response rating, Ragweed [9, 17]: 0 | Ragweed plant response rating [9]: 0 | Plant response rating, Corn [10, 19]: 0 | Plant response rating, Corn [10, 23]: 0 | Plant response rating, Pigweed [11, 17]: 40 | Pigweed plant response rating [11]: 100 | Plant response rating, Ryegrass, Italian [12, 19]: 0 | Plant response rating, Ryegrass, Italian [12, 23]: 0 | Plant response rating, Galium [13, 19]: 40 | Plant response rating, Galium [13, 23]: 60 | Plant response rating, Ragweed [14, 19]: 0 | Plant response rating, Ragweed [14, 23]: 0 | Plant response rating, Kochia [15, 17]: 0 | Kochia plant response rating [15]: 0 | Plant response rating, Wheat [16, 19]: 0 | Plant response rating, Wheat [16, 23]: 60

Cc1cc(C)c(N(S(=O)(=O)C(F)(F)F)S(=O)(=O)C(F)(F)F)cc1-c1cc(C(F)(F)F)nn(C)c1=O [Compound 61]
Barnyardgrass plant response rating [1]: 100 | Plant response rating, Barnyardgrass ([1]; 500 g ai/ha): 100 | Foxtail, Giant plant response rating [2]: 100 | Plant response rating, Foxtail, Giant ([2]; 500 g ai/ha): 100 | Plant response rating, Blackgrass [3, 18]: 0 | Blackgrass plant response rating [3, 24]: 30 | Plant response rating, Pigweed [4, 20]: 20 | Pigweed plant response rating [4, 25]: 80 | Ryegrass, Italian plant response rating [5]: 70 | Plant response rating, Ryegrass, Italian ([5]; 500 g ai/ha): 100 | Plant response rating, Barnyardgrass [6, 18]: 20 | Barnyardgrass plant response rating [6, 24]: 80 | Plant response rating, Kochia [7, 20]: 40 | Kochia plant response rating [7, 25]: 60 | Plant response rating, Foxtail, Giant [8, 20]: 0 | Foxtail, Giant plant response rating [8, 25]: 70 | Ragweed plant response rating [9]: 0 | Plant response rating, Ragweed ([9]; 500 g ai/ha): 0 | Plant response rating, Corn [10, 20]: 20 | Corn plant response rating [10, 25]: 10 | Pigweed plant response rating [11]: 50 | Plant response rating, Pigweed ([11]; 500 g ai/ha): 80 | Plant response rating, Ryegrass, Italian [12, 20]: 40 | Ryegrass, Italian plant response rating [12, 25]: 80 | Plant response rating, Galium [13, 20]: 50 | Galium plant response rating [13, 25]: 60 | Plant response rating, Ragweed [14, 20]: 0 | Ragweed plant response rating [14, 25]: 30 | Kochia plant response rating [15]: 50 | Plant response rating, Kochia ([15]; 500 g ai/ha): 90 | Plant response rating, Wheat [16, 20]: 40 | Wheat plant response rating [16, 25]: 70
